Patent publication US20240226005A1, “NANO- AND MICRO-FORMULATIONS” (Huxley Health Inc., priority 2023, published 2024)
“Also recorded” adds a separate entry of the source.

Tests used:
[1] = tested on: human glioma U251 GBM cells; assay: Cellular uptake, flow cytometry and fluorescence microscopy; assay type: cell-based; conditions: flow cytometry and fluorescence imaging
Protocol: Cellular uptake studies: The human glioma U251 GBM cells were cultured at 5×10^4 cells per well in 12 plates using EMEM media supplemented with 10% FBS, 0.5% PenStrep and 1% w/non-essential amino acids (NEAA); then, washed with 0.05% trypsin. The cells were cells were incubated overnight at 37° C. in a humidified 5% CO2 atmosphere. The cells were treated with NEs loaded with bufotenine and Nile Red dye diluted to 0.1 mg/ml in PBS. Untreated cells were used as a negative control a long with a solution of unformulated API and Nile Red. This was done to serve as a sort of a positive control against the negative control of the untreated cells. After 24 h exposure, cells were washed twice with PBS and then collected in PBS-EDTA media (2 mM). The flow cytometry was performed using a BD C6 Flow Cytometry apparatus at a wavelength of 488 nm laser. For each experiment 10,000 cells were gated per sample and each sample was performed in triplicate. These cells prepared as such were used for fluorescence analysis. Fluorescence images were taken using a Leica CRT 6500 at the desired magnification using Texas Red Set (Leica TX2 ET Set) filter and exciting the samples using a continuous wave Ar+ laser at 488 nm.

[2] = tested on: L2, SW982, HCT116, 231 cells; assay: Cytotoxicity assay (MTT) on four cell lines; assay type: cell-based, rat, human; conditions: 48 h, 10- to 10000-fold dilutions of 1 mg/g
Protocol: Four different cell lines were used for the evaluation of the tested formulations and unformulated bufotenin. • L2:Rat lung cells (Normal) https://www.atcc.org/products/ccl-149 • SW982: The human synovial sarcoma cells https://www.atcc.org/products/htb-93 • HCT116: The human colon cancer cells https://www.atcc.org/products/ccl-247 • 231: The human breast cancer cells https://www.atcc.org/products/crm-htb-26
Cytotoxicity assay: The effect of the NEs on cell viability was measured by MTT assay following the method by Mosmann and colleagues. Briefly, the cells were seeded in a 96 well micro titer plate (100 μL per well) with replications. After 24 h, cells were treated with 50 μL of the analyte at four different dilutions (10,100,1000, and 10000-fold), added directly to wells with culture media. The starting concentration for Kolliphor-Bf-SNEDDS, Kolliphor-Bfa-t-SNEDDSand unformulated bufoteninin DMSO were 1 mg·g^−1. After incubation for 48 h, the media was discarded. 100 μL of 0.5 mg·mL^−1 MTT stock solution was added to each well and incubated for 4 h at 37° C. The obtained formazan crystals were solubilized with DMSO, and the absorbance was measured at 570 nm using a microplate reader (SpectraMax M5e, Molecular Devices, USA). Cell viability (%) was calculated as a ratio of absorbance (A570) in treated cells to absorbance in control cells (intact cells without treatment) (A570).

Compound: CN(C)CCc1c[nH]c2ccc(O)cc12 [unformulated bufotenin, 5-Hydroxy-N,N-dimethyltryptamine]
- cellular uptake (in words) [1]: no unformulated bufotenin penetrated the glioma cells; also recorded: negligible
- cytotoxicity / cell viability [2]: no effect on their viability
